Values of other authors, collected in US20090209489A1, “Compositions for the treatment of diabetis, system PH disorders, high blood pressure, and a cancer marker system” (priority 2008, published 2009).

Test system: Group 5 viruses
Conditions: therapeutic doses

CC(=O)N[C@H]1[C@H]([C@H](O)[C@H](O)CO)OC(O)(C(=O)O)C[C@@H]1O (stereo partly shown) [N-Acetyl-Neuraminic Acid]
effectiveness at killing Group 5 viruses relative to any other known medication: more than 1000 times
